Measured values published in patent publication US12180207B2 (ARRAY BIOPHARMA INC., priority 2018, dated 2024).

How the values were obtained:
[1] = biological target: phosphorylated FGFR3 (SEQ ID NO: 5, amino acids 449 to 759) (Homo sapiens (Human), UniProt P22607); assay: FGFR enzyme binding assay (HTRF tracer displacement), FGFR3; settings: 5 nM phosphorylated FGFR3, average of multiple determinations if made
How it was run: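 Compounds were tested for displacement of a tracer from human FGFR kinase in a time-resolved FRET binding format. After 60 minutes at 22° C, signal was read at two wavelengths and converted to percent of control, normalised between untreated wells and 1 μM reference inhibitor.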

[2] = biological target: HEK-293 cells transfected with dox-inducible human wild type FGFR3 (Homo sapiens (Human), UniProt P22607); assay: FGFR3 pERK cell assay; type: cell-based; settings: HEK-293 dox-inducible FGFR3, 1 hour compound, 100 ng/ml FGF-acidic; maximum concentration 5 μM
HEK-293 cells transfected with dox-inducible human wild type FGFR3, sequence (P22607 23-806): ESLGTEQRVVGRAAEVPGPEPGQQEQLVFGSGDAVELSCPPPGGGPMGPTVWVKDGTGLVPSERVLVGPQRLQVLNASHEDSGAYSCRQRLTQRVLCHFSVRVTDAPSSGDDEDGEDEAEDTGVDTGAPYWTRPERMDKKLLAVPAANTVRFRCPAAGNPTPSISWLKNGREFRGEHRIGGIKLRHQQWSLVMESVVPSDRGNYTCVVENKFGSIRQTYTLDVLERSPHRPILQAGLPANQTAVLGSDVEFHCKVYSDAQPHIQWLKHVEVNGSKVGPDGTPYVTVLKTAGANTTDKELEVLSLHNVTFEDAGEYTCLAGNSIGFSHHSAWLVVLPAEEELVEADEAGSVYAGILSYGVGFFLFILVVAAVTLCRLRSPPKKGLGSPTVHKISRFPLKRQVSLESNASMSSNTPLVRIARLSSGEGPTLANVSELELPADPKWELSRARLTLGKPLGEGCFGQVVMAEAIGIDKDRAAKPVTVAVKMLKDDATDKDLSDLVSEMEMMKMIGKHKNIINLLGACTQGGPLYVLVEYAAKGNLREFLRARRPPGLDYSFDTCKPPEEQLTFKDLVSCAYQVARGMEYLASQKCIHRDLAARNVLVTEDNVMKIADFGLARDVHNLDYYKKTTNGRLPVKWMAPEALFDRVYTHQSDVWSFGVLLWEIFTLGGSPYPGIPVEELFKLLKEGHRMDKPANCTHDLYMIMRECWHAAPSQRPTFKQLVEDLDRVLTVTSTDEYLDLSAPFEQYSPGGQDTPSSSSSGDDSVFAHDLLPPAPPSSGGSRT
Experimental: FGFR3 pERK Cell Assay: • HEK-293 cells transfected with dox-inducible human wild type FGFR3 (SEQ ID NO: 5) were plated in a collagen or poly-D-lysine coated 96 well flat bottom plates at 4×10^5 cells/well in complete DMEM medium containing 10% FBS and 1 μg/ml doxycycline and allowed to attach for 24 h at 37° C., 5% CO2. Cells were treated with compound using 1:3 serial dilutions with a maximum final concentration of 5 μM. Compound was incubated on cells for 1 hour at 37° C., 5% CO2. Cells were then stimulated with a final concentration of 100 ng/ml human FGF-acidic (R&D Systems Cat number 232-FA/CF) for 5 minutes at 37° C., 5% CO2. Medium was removed, and cells were lysed with lysis buffer containing phosphatase and protease inhibitors. Phospho ERK1/2 was measured using the Meso Scale Discovery sandwich assay (Meso Scale Discovery cat. no. K151DWD). The assay captures phospho ERK1/2 and detects with a sulfo-tagged total ERK1/2 antibody. The chemiluminescent signal was read on the Sector Imager Plate reader. 100 POC was determined using no test compounds and 0 POC was determined using a control compound. The POC values were fit to a 4-parameter logistic curve as a function of the concentration of the compound, and the IC50 value is the point where the curve crosses 50 POC.

[3] = biological target: HEK-293 cells transfected with dox-inducible human wild type FGFR1 (Homo sapiens (Human), UniProt P11362); assay: FGFR1 pERK cell assay; type: cell-based; settings: HEK-293 dox-inducible FGFR1, 1 hour compound, 100 ng/ml FGF-acidic; maximum concentration 5 μM
HEK-293 cells transfected with dox-inducible human wild type FGFR1, sequence (P11362 22-822): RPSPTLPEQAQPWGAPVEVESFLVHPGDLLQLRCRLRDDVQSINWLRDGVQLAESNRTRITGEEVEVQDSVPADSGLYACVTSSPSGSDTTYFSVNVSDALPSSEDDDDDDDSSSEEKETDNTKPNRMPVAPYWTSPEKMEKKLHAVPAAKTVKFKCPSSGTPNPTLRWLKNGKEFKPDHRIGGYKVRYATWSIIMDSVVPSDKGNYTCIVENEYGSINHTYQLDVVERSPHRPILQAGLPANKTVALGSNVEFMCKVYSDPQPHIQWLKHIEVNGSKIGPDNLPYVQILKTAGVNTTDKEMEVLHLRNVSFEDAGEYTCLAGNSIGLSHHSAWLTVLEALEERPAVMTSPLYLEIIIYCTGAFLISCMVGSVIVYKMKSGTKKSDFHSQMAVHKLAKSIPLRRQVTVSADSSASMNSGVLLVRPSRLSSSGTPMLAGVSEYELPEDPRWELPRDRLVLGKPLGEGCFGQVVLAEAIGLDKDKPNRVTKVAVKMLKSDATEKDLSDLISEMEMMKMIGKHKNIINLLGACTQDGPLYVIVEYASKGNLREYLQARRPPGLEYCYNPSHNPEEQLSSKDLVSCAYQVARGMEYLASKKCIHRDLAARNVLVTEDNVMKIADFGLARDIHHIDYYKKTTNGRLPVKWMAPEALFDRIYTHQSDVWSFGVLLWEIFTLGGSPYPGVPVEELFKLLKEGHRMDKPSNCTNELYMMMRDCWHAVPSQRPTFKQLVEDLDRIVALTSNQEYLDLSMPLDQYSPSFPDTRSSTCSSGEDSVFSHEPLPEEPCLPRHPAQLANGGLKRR
How it was run: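 In HEK-293 cells with dox-induced human wild-type FGFR1, compounds (1:3 dilutions, top 5 μM final) were applied 1 h at 37°C before 5 min stimulation with 100 ng/ml FGF-acidic. Phospho-ERK1/2 measured by MSD sandwich immunoassay; IC50 from 4-parameter fit of POC versus vehicle and control compound.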

[4] = biological target: recombinant human FGFR1 catalytic domain (amino acids 308-731) (Homo sapiens (Human), UniProt P11362); assay: FGFR1 enzyme activity assay (LanthaScreen TR-FRET); type: biochemical; settings: 20 min incubation at 22° C., average of multiple determinations if made, read-out: FGFR1 Enz FRET IC50
recombinant human FGFR1 catalytic domain (amino acids 308-731), sequence (P11362 other isoform, or with tags, fused parts or gaps): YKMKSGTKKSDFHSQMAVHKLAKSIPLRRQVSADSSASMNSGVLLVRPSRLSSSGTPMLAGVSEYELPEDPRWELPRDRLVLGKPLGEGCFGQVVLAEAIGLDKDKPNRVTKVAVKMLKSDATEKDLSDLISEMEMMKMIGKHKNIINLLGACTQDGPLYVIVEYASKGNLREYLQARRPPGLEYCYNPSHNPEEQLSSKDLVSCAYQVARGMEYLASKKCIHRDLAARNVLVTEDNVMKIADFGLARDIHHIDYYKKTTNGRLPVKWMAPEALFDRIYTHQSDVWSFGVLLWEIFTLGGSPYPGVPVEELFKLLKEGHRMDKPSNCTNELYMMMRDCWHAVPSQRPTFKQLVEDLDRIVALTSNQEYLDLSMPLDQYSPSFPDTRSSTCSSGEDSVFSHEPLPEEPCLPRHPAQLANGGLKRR
How it was run: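 His-tagged FGFR1 kinase domain with 100 nM Alexa Fluor 647-poly-GT peptide and ATP in pH 7.5 HEPES/MgCl2 buffer with 2% DMSO, 20 min at 22 °C. Quenched with EDTA plus 2 nM Eu-PY20 antibody and read after 60 min. IC50 comes from a 4-parameter fit of percent of control.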

[5] = biological target: FGFR3 (SEQ ID NO: 5, amino acids 449-759) (Homo sapiens (Human), UniProt P22607); assay: LC/MS FGFR3 kobs assay (covalent protein modification); type: binding; settings: 500 nM FGFR3, 3 μM compound
FGFR3 (SEQ ID NO: 5, amino acids 449-759), sequence (P22607 449-759): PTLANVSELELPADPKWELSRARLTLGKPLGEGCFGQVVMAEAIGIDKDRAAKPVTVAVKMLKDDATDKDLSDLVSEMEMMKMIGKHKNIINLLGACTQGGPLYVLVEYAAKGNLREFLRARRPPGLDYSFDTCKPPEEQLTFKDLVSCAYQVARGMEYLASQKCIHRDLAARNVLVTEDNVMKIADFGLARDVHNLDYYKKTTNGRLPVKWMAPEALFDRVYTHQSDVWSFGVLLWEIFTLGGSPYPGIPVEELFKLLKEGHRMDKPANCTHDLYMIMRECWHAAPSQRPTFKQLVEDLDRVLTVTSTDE
How it was run: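 The observed rate constant kobs comes from an exponential decay fit of percent unmodified kinase over time. Covalent modification was quantified by Q-TOF LC/MS of formic acid-quenched samples, normalized against DMSO controls.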

phosphorylated FGFR3 (SEQ ID NO: 5, amino acids 449 to 759), sequence (P22607 449-759): as above

SMILES | IC50 [1] [nM] | IC50 [2] [nM] | IC50 [3] [nM] | IC50 [4] [nM] | FGFR3 Enz kobs [5] [min⁻¹]
C=CC(=O)N1CC(OC)(C(=O)N2CCC(n3nc(C)c(-c4cc(OC)c5c(C#N)cnn5c4)c3C)CC2)C1 [Example 95, 6-(1-(1-(1-acryloyl-3-methoxyazetidine-3-carbonyl)piperidin-4-yl)-3,5-dimethyl-1H-pyrazol-4-yl)-4-methoxypyrazolo[1,5-a]pyridine-3-carbonitrile] | 26 | 98 | 1070 | 842 | 0.04202
C=CC(=O)N1CC(F)(C(=O)N2CCC(n3ncc(-c4cc(OC)c5c(C#N)cnn5c4)c3CC)CC2)C1 [Example 96, 6-(1-(1-(1-acryloyl-3-fluoroazetidine-3-carbonyl)piperidin-4-yl)-5-ethyl-1H-pyrazol-4-yl)-4-methoxypyrazolo[1,5-a]pyridine-3-carbonitrile] | 73 | 351 | 2100 | 384 | 0.03335
C=CC(=O)N1CC(C(=O)N2CCC(n3cc(-c4cc(OC)c5c(C#N)cnn5c4)c(CC)n3)CC2)C1 [Example 97, 6-(1-(1-(1-acryloylazetidine-3-carbonyl)piperidin-4-yl)-3-ethyl-1H-pyrazol-4-yl)-4-methoxypyrazolo[1,5-a]pyridine-3-carbonitrile] | 53 | 384 |  | 117 | 0.01865
C=CC(=O)N1CC(C(=O)N2CCN(c3ccc(-c4cc(OC)c5c(C#N)cnn5c4)cc3)CC2)C1 [Example 100, 6-(4-(4-(1-acryloylazetidine-3-carbonyl)piperazin-1-yl)phenyl)-4-methoxypyrazolo[1,5-a]pyridine-3-carbonitrile] | 5 | 21 | 180 | 9 | 0.02324
C=CC(=O)N1CC(C(=O)N2CCC3(CC2)CN(c2ccc(-c4cc(OC)c5c(C#N)cnn5c4)cn2)C3)C1 [Example 102, 6-(6-(7-(1-acryloylazetidine-3-carbonyl)-2,7-diazaspiro[3.5]nonan-2-yl)pyridin-3-yl)-4-methoxypyrazolo[1,5-a]pyridine-3-carbonitrile] | 6 | 44 | 239 | 38 | 0.02912
C=CC(=O)N1CC(C(=O)N2CCC3(C2)CN(c2ccc(-c4cc(OC)c5c(C#N)cnn5c4)cn2)C3)C1 [Example 103, 6-(6-(6-(1-acryloylazetidine-3-carbonyl)-2,6-diazaspiro[3.4]octan-2-yl)pyridin-3-yl)-4-methoxypyrazolo[1,5-a]pyridine-3-carbonitrile] | 10 | 137 | 573 | 49 | 0.02186
C=CC(=O)N1CC(C(=O)N2CC3(C2)CN(c2ccc(-c4cc(OC)c5c(C#N)cnn5c4)cn2)C3)C1 [Example 104, 6-(6-(6-(1-acryloylazetidine-3-carbonyl)-2,6-diazaspiro[3.3]heptan-2-yl)pyridin-3-yl)-4-methoxypyrazolo[1,5-a]pyridine-3-carbonitrile] | 12 | 146 | 1110 | 63 | 0.03006
C=CC(=O)N1CC(C(=O)N2CC3CC(C2)N3c2ccc(-c3cc(OC)c4c(C#N)cnn4c3)cn2)C1 [Example 105, 6-(6-(3-(1-acryloylazetidine-3-carbonyl)-3,6-diazabicyclo[3.1.1]heptan-6-yl)pyridin-3-yl)-4-methoxypyrazolo[1,5-a]pyridine-3-carbonitrile] | 97 | 2660 | 3960 | 193 | 0.00147
C=CC(=O)N1CC(C(=O)N2C[C@@H]3C[C@H]2CN3c2ccc(-c3cc(OC)c4c(C#N)cnn4c3)cn2)C1 [Example 106, 6-(6-((1S,4S)-5-(1-acryloylazetidine-3-carbonyl)-2,5-diazabicyclo[2.2.1]heptan-2-yl)pyridin-3-yl)-4-methoxypyrazolo[1,5-a]pyridine-3-carbonitrile] | 9 | 244 | 955 | 61 | 0.01259
C=CC(=O)N1CC(C(=O)N2C[C@H]3C[C@@H]2CN3c2ccc(-c3cc(OC)c4c(C#N)cnn4c3)cn2)C1 [Example 107, 6-(6-((1R,4R)-5-(1-acryloylazetidine-3-carbonyl)-2,5-diazabicyclo[2.2.1]heptan-2-yl)pyridin-3-yl)-4-methoxypyrazolo[1,5-a]pyridine-3-carbonitrile] | 16 | 355 | 1350 | 68 | 0.01688
C=CC(=O)N1CC(CN2C[C@H]3C[C@@H]2CN3c2ccc(-c3cc(OC)c4c(C#N)cnn4c3)cn2)C1 [Example 108, 6-(6-((1R,4R)-5-((1-acryloylazetidin-3-yl)methyl)-2,5-diazabicyclo[2.2.1]heptan-2-yl)pyridin-3-yl)-4-methoxypyrazolo[1,5-a]pyridine-3-carbonitrile] | 11 | 47 | 116 | 20 | 0.01344
C=CC(=O)N1CC(C(=O)N2CCN(c3ccc(-c4cc(OC)c5c(C#N)cnn5c4)cn3)CC2)C1 [Example 111, 6-(6-(4-(1-acryloylazetidine-3-carbonyl)piperazin-1-yl)pyridin-3-yl)-4-methoxypyrazolo[1,5-a]pyridine-3-carbonitrile] | 11 | 34 | 288 | 12 | 0.04009
C=CC(=O)N1CC(F)(C(=O)N2CCN(c3ccc(-c4cc(OC)c5c(C#N)cnn5c4)cn3)CC2)C1 [Example 112, 6-(6-(4-(1-acryloyl-3-fluoroazetidine-3-carbonyl)piperazin-1-yl)pyridin-3-yl)-4-methoxypyrazolo[1,5-a]pyridine-3-carbonitrile] | 4 | 21 | 122 | 21 | 0.1108
C=CC(=O)N1CC(C(=O)N2CCN(c3ncc(-c4cc(OC)c5c(C#N)cnn5c4)cc3C)CC2)C1 [Example 113, 6-(6-(4-(1-acryloylazetidine-3-carbonyl)piperazin-1-yl)-5-methylpyridin-3-yl)-4-methoxypyrazolo[1,5-a]pyridine-3-carbonitrile] | 45 | 186 | 1570 | 107 | 0.02175
COc1cc(-c2cnn(C3CCN(C(=O)C4(F)CN(C(=O)/C=C/C(F)(F)F)C4)CC3)c2C)cn2ncc(C#N)c12 [Example 155, (E)-6-(1-(1-(3-fluoro-1-(4,4,4-trifluorobut-2-enoyl)azetidine-3-carbonyl)piperidin-4-yl)-5-methyl-1H-pyrazol-4-yl)-4-methoxypyrazolo [1,5-a]pyridine-3-carbonitrile] | 10 | 31 | 157 | 255 | 
C=CC(=O)N(C)c1ccc(C(=O)N2CCC(n3cc(-c4cc(OC)c5c(C#N)cnn5c4)cn3)CC2)cc1 [Example 178, N-(4-(4-(4-(3-cyano-4-methoxypyrazolo[1,5-a]pyridin-6-yl)-1H-pyrazol-1-yl)piperidine-1-carbonyl)phenyl)-N-methylacrylamide] | 8 |  |  | 14 | 0.01469
